From patent US9586951B2 (FUJIFILM Corporation, priority 2013, dated 2017) come the findings set out here.

Structures are written as SMILES. Bounds are passed on as bounds.

In this experiment the target is T1, ATM (Homo sapiens, UniProt Q13315).
T1 construct: detecting phosphorylation of Chk2 in a human non-small cell lung cancer cell line NCI-H460 (ATCC company); host or cells: NCI-H460 human non-small cell lung cancer cells
T1 sequence (Q13315 whole entry): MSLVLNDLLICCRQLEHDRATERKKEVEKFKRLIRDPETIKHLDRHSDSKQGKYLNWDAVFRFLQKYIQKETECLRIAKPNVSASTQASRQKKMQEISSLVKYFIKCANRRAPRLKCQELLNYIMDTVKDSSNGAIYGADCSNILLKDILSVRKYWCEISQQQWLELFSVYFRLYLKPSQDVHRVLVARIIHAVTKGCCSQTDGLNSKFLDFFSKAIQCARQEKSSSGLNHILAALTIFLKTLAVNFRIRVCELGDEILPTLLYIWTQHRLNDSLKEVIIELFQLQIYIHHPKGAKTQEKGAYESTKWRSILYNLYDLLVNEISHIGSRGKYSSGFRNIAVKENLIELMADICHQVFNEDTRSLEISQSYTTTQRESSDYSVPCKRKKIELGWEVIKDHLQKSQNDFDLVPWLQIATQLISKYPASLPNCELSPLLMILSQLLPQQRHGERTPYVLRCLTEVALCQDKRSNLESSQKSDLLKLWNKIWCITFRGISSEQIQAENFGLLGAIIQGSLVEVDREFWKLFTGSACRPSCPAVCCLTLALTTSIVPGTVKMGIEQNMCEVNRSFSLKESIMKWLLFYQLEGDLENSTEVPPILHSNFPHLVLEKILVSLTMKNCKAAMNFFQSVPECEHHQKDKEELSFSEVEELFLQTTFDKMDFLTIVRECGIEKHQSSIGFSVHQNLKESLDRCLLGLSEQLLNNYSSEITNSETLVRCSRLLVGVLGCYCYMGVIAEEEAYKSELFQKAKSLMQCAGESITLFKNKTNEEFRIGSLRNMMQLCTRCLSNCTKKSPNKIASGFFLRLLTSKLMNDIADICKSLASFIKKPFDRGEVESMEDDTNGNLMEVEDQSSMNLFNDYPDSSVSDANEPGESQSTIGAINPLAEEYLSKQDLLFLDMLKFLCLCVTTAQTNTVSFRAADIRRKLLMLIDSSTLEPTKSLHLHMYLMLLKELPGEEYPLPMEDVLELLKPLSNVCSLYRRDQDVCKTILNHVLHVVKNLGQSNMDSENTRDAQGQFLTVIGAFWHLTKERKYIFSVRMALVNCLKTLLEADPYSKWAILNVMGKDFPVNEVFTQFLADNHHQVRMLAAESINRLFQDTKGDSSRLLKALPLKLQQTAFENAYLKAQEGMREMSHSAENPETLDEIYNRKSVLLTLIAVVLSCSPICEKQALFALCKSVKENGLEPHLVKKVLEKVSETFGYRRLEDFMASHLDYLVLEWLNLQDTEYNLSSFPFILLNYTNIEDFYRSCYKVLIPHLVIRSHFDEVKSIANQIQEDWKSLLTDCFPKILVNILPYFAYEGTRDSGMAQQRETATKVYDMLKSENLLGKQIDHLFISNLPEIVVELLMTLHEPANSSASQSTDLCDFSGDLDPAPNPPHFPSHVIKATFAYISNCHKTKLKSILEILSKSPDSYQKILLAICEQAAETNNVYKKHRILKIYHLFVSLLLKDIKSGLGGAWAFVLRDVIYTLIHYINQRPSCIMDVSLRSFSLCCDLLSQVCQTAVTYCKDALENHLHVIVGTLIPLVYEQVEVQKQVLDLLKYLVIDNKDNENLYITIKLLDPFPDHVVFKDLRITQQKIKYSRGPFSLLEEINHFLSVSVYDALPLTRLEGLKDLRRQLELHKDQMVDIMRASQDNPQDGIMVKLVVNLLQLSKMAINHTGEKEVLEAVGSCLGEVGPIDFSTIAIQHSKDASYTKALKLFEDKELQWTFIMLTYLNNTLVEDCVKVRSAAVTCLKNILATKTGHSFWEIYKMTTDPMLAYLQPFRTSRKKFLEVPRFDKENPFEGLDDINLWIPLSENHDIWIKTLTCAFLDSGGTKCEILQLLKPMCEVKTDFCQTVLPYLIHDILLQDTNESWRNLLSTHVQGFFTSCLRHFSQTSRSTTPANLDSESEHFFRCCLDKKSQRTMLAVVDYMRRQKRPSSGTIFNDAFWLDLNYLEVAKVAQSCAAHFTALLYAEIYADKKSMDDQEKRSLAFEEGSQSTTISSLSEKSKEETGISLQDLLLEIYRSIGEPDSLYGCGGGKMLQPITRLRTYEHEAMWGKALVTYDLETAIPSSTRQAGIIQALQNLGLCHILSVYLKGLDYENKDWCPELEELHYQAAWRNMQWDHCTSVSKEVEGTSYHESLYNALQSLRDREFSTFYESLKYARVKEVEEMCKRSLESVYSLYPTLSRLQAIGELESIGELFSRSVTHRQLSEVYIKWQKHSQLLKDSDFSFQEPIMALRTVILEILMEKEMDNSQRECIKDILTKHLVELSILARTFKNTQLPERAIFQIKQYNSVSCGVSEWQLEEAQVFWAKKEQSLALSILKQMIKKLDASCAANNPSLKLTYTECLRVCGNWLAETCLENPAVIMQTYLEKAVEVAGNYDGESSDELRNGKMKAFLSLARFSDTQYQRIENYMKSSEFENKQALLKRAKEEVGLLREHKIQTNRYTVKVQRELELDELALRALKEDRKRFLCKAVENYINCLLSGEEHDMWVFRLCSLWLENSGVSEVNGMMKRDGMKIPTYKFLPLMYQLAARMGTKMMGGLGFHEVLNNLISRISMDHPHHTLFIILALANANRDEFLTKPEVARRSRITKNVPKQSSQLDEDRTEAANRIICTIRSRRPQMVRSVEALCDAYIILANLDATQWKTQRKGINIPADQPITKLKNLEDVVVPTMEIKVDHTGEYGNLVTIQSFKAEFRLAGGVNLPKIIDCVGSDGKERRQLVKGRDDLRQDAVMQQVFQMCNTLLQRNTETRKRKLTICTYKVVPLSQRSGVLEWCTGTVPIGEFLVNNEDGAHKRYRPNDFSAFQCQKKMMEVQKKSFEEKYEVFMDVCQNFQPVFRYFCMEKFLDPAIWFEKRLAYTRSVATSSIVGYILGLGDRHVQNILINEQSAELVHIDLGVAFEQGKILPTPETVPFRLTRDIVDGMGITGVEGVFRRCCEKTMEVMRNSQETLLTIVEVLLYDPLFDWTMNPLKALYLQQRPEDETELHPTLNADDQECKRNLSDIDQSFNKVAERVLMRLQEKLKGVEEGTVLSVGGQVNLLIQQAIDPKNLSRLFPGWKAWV
Nature of the experiment: ATM inhibition test (phosphorylation of Chk2 generated by ionizing radiation, AlphaScreen SureFire). The following applies: phosphorylated Chk2 in NCI-H460 cells, ionizing radiation 8Gy, 1 hour after test compound treatment; read-out: ATM inhibitory activity. Type of experiment: cell-based. Put shortly:
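NCI-H460 cells, compound 1 h pre-treatment, 8Gy IR, further 1 h at 37° C in 5% CO2. Read-out: phospho-Chk2 via AlphaScreen SureFire. % inhibition relative to IR-induced signal window (irradiated vs non-irradiated drug-free wells).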
In general terms: In Alpha technology, singlet oxygen from a donor bead excites a nearby acceptor bead.
Consider `O=c1cc(N2CCOCC2)cc(-c2cccc3c2Sc2ccc(NCc4cncc(-n5ccnc5)c4)cc2S3)[nH]1` [Example 1-12-20, 6-(7-(((5-(1H-Imidazol-1-yl)pyridin-3-yl)methyl)amino)thianthren-1-yl)-4-morpholino pyridin-2(1H)-one], for which the IC50 is less than 100 nM. Regarding `O=c1cc(N2CCOCC2)cc(-c2cccc3c2Oc2ccc(NC4CCC5(CC4)OCCO5)cc2C3)[nH]1` [Example 2-2-62, 6-(7-(1,4-Dioxaspiro[4.5]decan-8-ylamino)-9H-xanthen-4-yl)-4-morpholino pyridin-2(1H)-one], the IC50 lay in the range of 100 to 500 nM. Regarding `CNc1ccc(CNc2ccc3c(c2)Sc2cccc(-c4cc(N5CCOCC5)cc(=O)[nH]4)c2S3)cn1` [Example 1-12-8, 6-(7-(((6-(Methylamino)pyridin-3-yl)methyl)amino)thianthren-1-yl)-4-morpholino pyridin-2(1H)-one], the IC50 fell in the range of 100 to 500 nM. With `COc1ccc(CCN2CCC(Nc3ccc4c(c3)Cc3cccc(-c5cc(N6CCOCC6)cc(=O)[nH]5)c3O4)CC2)cc1` [Example 2-30-2, 6-(7-((1-(4-Methoxyphenethyl)piperidin-4-yl)amino)-9H-xanthen-4-yl)-4-morpholino pyridin-2 (1H)-one] the figure was 100 to 500 nM; with `Cc1ccc(C(CCN(C)CCCN(C)C)Nc2ccc3c(c2)Sc2cccc(-c4cc(N5CCOCC5)cc(=O)[nH]4)c2S3)nc1` (single isomer, unassigned) [Example 10-5-2, 6-(7-((3-((3-(Dimethylamino)propyl)(methyl)amino)-1-(5-methylpyridin-2-yl)propyl)amino)thianthren-1-yl)-4-morpholinopyridin-2(1H)-one], 100 to 500 nM; with `COCCN1CCC(C(Nc2ccc3c(c2)Sc2cccc(-c4cc(N5CCOCC5)cc(=O)[nH]4)c2S3)c2ccc(C)cn2)CC1` (stereo not shown) [Example 1-56-7, 6-(7-(((1-(2-Methoxyethyl)piperidin-4-yl)(5-methylpyridin-2-yl)methyl)amino)thianthren-1-yl)-4-morpholino pyridin-2(1H)-one], less than 100 nM. Turning to `CN1CCN(C(=O)CNc2ccc3c(c2)Sc2cccc(-c4cc(N5CCOCC5)cc(=O)[nH]4)c2S3)CC1` [Example 1-18-3], the IC50 fell in the range of 500 to 2000 nM. For the compound `COc1ccc(CNc2ccc3c(c2)Sc2cccc(-c4cc(N5CCOCC5)cc(=O)[nH]4)c2S3)nc1` [Example 1-12-12, 6-(7-(((5-Methoxypyridin-2-yl)methyl)amino)thianthren-1-yl)-4-morpholino pyridin-2(1H)-one], the IC50 is 100 to 500 nM.

Turning to `O=c1cc(N2CCOCC2)cc(-c2cccc3c2Oc2ccc(NCc4cncnc4)cc2C3)[nH]1` [Example 2-3-2, 4-Morpholino-6-(7-((pyrimidin-5-ylmethyl)amino)-9H-xanthen-4-yl) pyridin-2(1H)-one], the IC50 lay in the range of 100 to 500 nM. With `COc1cnccc1CNc1ccc2c(c1)Cc1cccc(-c3cc(N4CCOCC4)cc(=O)[nH]3)c1O2` [Example 2-14-9, 6-(7-(((3-Methoxypyridin-4-yl)methyl)amino)-9H-xanthen-4-yl)-4-morpholino pyridin-2(1H)-one], the IC50 was in the range of 100 to 500 nM. As to `Cc1nccc(CNc2ccc3c(c2)Sc2cccc(-c4cc(N5CCOCC5)cc(=O)[nH]4)c2S3)n1` [Example 1-12-39, 6-(7-(((2-Methylpyrimidin-4-yl)methyl)amino)thianthren-1-yl)-4-morpholino pyridin-2 (1H)-one], the IC50 lay in the range of 500 to 2000 nM. The result for `O=c1cc(N2CCOCC2)cc(-c2cccc3c2Oc2ccc(NC4CCN(Cc5cccnc5)CC4)cc2C3)[nH]1` [Example 2-9-2, 4-Morpholino-6-(7-((1-(pyridin-3-ylmethyl)piperidin-4-yl)amino)-9H-xanthen-4-yl)pyridin-2(1H)-one] reads 100 to 500 nM; that for `Cc1cncc(C(C)Nc2ccc3c(c2)Cc2cccc(-c4cc(N5CCOCC5)cc(=O)[nH]4)c2O3)c1` (single isomer, unassigned) [Example 2-14-88-2, 6-(7-((1-(5-methylpyridin-3-yl)ethyl)amino)-9H-xanthen-4-yl)-4-morpholinopyridin-2(1H)-one], 100 to 500 nM.
